The values that follow come from ChEMBL document CHEMBL4616680, “Shedding X-ray Light on the Role of Magnesium in the Activity of Mycobacterium tuberculosis Salicylate Synthase (MbtI) for Drug Design” (J Med Chem, 2020).

The experiment deals with MRC5. The experiment is described as follows: Cytotoxicity in human MRC5 cells. The experiment is classed as cell-based.

As for `N#Cc1cccc(-c2ccc(C(=O)O)o2)c1`, the IC50 is over 100 µM.

Usually IC50 stands for the concentration that gives 50% inhibition.
